Data from US20240025892A1 (priority 2020, published 2024).
Read-outs that look alike come from different tables or passages of the source.

What was measured:
CRTC2 (TORC2) = experiment: CRTC2 nuclear translocation (PathHunter U2OS); type: cell-based; conditions: maximal CRTC2 nuclear translocation, U2OS cells, 90 minutes, maximum dose 10 μM
Text: PathHunter® Nuclear Translocation cell lines are engineered to co-express two fusion proteins: a) Enzyme Donor (ED) tagged target protein; b) an Enzyme Acceptor (EA) tagged TAZ domain, derived from the CBP/P300 transcription factor, that localizes to the nucleus. Activation of the signaling pathway induces translocation of the ED-tagged target protein into the nucleus, which will force complementation of the two enzyme fragments, and result in the formation of a functional enzyme that will hydrolyze substrate and generate a chemiluminescent signal. U2OS CRTC2 (TORC2) translocation assays were performed in 384 well plates at Eurofins DiscoverX (Freemont, CA). Cells were treated with compounds for 90 minutes in experimental duplicates in 5 point dose response format (4-fold serial dilutions with a maximum dose of 10 μM) followed by […] readout on an Envision 2104 Multilabel Reader. In all experiments, forskolin was used as a positive control and maximal CRTC2 nuclear translocation induced by each compound is expressed as a percentage of the signal stimulated by forskolin.
Representative data are shown in FIG. 4A and presented as percent of the positive control (forskolin) signal.

Recombinant SIK2 = Recombinant SIK2 (Homo sapiens (Human), UniProt Q9H0K1); experiment: biochemical; conditions: recombinant SIK2 2.5 nM, 1 μM ATP; read-out: SIK2 IC50
Sequence of Recombinant SIK2 (Q9H0K1 whole entry): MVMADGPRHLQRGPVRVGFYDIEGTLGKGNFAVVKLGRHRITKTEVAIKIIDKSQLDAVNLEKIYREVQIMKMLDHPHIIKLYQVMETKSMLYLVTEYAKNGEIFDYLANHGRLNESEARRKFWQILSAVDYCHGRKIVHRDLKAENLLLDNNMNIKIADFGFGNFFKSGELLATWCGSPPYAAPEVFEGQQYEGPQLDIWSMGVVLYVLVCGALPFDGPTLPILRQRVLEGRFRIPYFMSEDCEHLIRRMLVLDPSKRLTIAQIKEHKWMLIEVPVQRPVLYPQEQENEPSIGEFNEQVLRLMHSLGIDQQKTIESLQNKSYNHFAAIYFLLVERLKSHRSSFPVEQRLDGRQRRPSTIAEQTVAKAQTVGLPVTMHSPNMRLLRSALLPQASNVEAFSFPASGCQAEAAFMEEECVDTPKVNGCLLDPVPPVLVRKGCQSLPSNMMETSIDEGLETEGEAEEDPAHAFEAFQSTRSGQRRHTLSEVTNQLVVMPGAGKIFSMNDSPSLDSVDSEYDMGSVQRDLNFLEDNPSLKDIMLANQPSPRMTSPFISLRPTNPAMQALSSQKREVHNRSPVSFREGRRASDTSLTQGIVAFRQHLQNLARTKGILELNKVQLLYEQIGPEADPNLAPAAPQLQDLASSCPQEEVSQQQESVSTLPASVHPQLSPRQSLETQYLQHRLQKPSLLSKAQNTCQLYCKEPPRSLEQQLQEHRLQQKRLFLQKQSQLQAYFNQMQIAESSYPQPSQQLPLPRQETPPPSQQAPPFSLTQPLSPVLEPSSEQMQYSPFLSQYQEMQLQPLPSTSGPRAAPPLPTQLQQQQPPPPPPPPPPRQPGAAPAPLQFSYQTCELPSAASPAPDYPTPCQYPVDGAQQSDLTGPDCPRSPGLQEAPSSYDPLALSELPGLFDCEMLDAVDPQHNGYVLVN
Description: (§1) Assays were performed in base reaction buffer (20 mM Hepes (pH 7.5), 10 mM MgCl2, 1 mM EGTA, 0.02% Brij35, 0.02 mg/mL BSA, 0.1 mM Na3VO4, 2 mM DTT, 1% DMSO). Compounds were dissolved in 100% DMSO in a 10 mM stock. […] Assays were performed for 20 minutes at room temperature, after which time ^33P-ATP (10 μCi/μL) was added followed by incubation for another 120 minutes at room temperature. Thereafter, radioactivity incorporated into the pEY peptide substrate was detected by filter-binding method. Kinase activity data were expressed as the percent remaining kinase activity in test samples compared to DMSO reactions. IC50 values and curve fits were obtained using Prism (GraphPad Software).

SIK1 = SIK1 (Homo sapiens (Human), UniProt P57059); experiment: In vitro SIK1 kinase assay; type: biochemical
Sequence of SIK1 (P57059 whole entry): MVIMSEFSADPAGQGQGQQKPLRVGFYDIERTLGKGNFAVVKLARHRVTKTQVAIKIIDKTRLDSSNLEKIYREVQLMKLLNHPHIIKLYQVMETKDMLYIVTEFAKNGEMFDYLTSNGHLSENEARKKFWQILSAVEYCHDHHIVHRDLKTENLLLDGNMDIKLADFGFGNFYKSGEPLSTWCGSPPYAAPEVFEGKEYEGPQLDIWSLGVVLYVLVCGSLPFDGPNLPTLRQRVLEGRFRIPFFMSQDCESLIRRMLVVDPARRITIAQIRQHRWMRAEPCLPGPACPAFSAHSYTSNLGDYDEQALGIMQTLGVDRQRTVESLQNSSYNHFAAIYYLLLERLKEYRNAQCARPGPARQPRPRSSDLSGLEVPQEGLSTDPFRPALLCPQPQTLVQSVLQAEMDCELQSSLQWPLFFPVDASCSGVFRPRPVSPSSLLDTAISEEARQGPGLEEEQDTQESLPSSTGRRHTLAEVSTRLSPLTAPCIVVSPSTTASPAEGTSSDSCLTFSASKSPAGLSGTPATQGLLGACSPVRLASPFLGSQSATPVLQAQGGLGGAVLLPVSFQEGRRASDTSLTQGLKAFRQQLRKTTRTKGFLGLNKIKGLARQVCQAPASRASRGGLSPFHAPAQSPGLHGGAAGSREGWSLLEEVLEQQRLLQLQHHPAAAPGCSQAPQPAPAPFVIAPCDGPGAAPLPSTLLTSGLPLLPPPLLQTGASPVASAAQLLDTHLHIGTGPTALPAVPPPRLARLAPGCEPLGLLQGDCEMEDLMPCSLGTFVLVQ
Description: as §1

RANKL = RANKL gene expression in Ocy454 cells (RT-qPCR); conditions: maximal RANKL fold induction versus DMSO, four hours;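 also: Ocy454 cells moved to 37 °C for osteocytic differentiation before compound exposure, RANKL mRNA by SYBR Green qRT-PCR, 2^−ΔΔCT with β-actin normalization, duplicate wells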
SIK3 = SIK3 (Homo sapiens (Human), UniProt Q9Y2K2); experiment: In vitro SIK3 kinase assay; type: biochemical
Sequence of SIK3 (Q9Y2K2 whole entry): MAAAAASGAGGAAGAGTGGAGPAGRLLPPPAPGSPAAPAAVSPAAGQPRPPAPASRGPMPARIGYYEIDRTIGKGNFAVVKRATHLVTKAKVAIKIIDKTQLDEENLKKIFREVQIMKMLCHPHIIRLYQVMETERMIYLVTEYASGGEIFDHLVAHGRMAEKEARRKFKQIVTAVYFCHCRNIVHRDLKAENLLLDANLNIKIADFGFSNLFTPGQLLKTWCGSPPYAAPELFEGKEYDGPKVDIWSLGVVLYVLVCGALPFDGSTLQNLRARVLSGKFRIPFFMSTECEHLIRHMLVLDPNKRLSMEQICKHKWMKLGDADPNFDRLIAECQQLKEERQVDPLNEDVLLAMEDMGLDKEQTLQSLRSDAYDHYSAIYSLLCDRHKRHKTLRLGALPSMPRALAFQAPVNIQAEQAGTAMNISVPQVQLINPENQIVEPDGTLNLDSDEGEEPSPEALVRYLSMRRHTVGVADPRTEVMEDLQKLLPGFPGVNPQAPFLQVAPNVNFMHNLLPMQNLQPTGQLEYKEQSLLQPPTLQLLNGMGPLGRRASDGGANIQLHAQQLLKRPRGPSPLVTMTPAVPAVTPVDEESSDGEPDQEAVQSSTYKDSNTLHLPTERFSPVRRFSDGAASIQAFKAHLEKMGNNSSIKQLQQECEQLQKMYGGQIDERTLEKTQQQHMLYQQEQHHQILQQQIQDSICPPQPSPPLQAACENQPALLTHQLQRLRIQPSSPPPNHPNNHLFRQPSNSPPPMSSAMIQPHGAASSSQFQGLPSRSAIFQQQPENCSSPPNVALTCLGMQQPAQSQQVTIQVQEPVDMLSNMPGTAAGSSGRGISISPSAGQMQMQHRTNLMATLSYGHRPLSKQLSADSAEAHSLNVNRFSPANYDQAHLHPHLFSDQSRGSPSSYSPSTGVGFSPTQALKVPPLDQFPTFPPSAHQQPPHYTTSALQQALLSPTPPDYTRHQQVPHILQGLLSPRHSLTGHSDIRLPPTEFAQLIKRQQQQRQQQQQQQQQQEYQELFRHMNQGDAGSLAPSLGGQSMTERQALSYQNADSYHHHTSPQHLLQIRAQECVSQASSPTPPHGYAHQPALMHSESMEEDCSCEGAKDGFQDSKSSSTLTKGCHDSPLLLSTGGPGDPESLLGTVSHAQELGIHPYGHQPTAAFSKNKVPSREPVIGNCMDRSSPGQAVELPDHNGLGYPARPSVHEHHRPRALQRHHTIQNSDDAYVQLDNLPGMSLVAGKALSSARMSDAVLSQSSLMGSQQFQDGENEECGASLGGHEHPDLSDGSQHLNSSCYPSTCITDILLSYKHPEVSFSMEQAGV
Description: as §1

[1] = target: NanoLuc-SIK2 fusion in HEK293 cells (Homo sapiens (Human), UniProt Q9H0K1); experiment: cell-based
Sequence of NanoLuc-SIK2 fusion in HEK293 cells (Q9H0K1 whole entry, the tested form may be a part): as the sequence (Q9H0K1 whole entry) above
Description: Assays were performed at Reaction Biology Corporation (Malvern, PA) in HEK293 cells from ATCC in 384 well plate format using Promega's NanoBRET TE intracellular kinase assay platform. HEK293 cells transiently expressing NanoLuc-SIK2 fusion vector were seeded into 384 well plates. Cells were pre-treated with the NanoBRET Tracer K-4 and then treated with compounds for 60 minutes in 10 point dose response format. […] IC50 values were calculated and IC50 curves were plotted using the GraphPad Prism 4 program on a sigmoidal dose response equation.

[2] = HEK293 cells, compounds for 60 minutes, read-out: SIK2 NanoBRET

CC1(COc2ccc3c(c2)ncn3-c2ccc3cccc(N4CC5(CC(N)C5)C4)c3n2)COC1 [Example 2, 2-[2-[5-[(3-Methyloxetan-3-yl)methoxy]benzimidazol-1-yl]-8-quinolyl]-2-azaspiro[3.3]heptan-6-amine]
CRTC2 Efficacy (% of forskolin) (CRTC2 (TORC2)): 162 % of forskolin | IC50 (Recombinant SIK2): 42.1 nM | IC50 (SIK1): 625 nM | RANKL Fold Induction (RANKL): 1.43 fold | IC50 (SIK3): 38.7 nM

CC1(COc2ccc3c(c2)ncn3-c2ccc3cccc(N4CCC5(CCN5)CC4)c3n2)COC1 [Example 3, 2-(5-((3-methyloxetan-3-yl)methoxy)-1H-benzo[d]imidazol-1-yl)-8-(1,7-diazaspiro[3.5]nonan-7-yl)quinoline]
CRTC2 Efficacy (% of forskolin) (CRTC2 (TORC2)): 88.5 % of forskolin | IC50 [1, 2]: 8.86 nM | IC50 (Recombinant SIK2): 0.979 nM | IC50 (SIK1): 18.4 nM | RANKL Fold Induction (RANKL): 57.08 fold | IC50 (SIK3): 2.24 nM

CC1(COc2ccc3c(c2)ncn3-c2ccc3cccc(N4CC(N)C4)c3n2)COC1 [Example 7, 1-(2-(5-((3-methyloxetan-3-yl)methoxy)-1H-benzo[d]imidazol-1-yl)quinolin-8-yl)azetidin-3-amine]
CRTC2 Efficacy (% of forskolin) (CRTC2 (TORC2)): 89 % of forskolin | IC50 [1, 2]: 43.2 nM | IC50 (Recombinant SIK2): 8.35 nM | IC50 (SIK1): 138 nM | RANKL Fold Induction (RANKL): 30.37 fold | IC50 (SIK3): 11.5 nM

CC1(COc2ccc3c(c2)ncn3-c2ccc3cccc(N4CCCC4CN)c3n2)COC1 (centres unmarked) [Example 8, (1-(2-(5-((3-methyloxetan-3-yl)methoxy)-1H-benzo[d]imidazol-1-yl)quinolin-8-yl)pyrrolidin-2-yl)methanamine]
CRTC2 Efficacy (% of forskolin) (CRTC2 (TORC2)): 64.4 % of forskolin | IC50 (Recombinant SIK2): 11.6 nM | IC50 (SIK1): 50.1 nM | RANKL Fold Induction (RANKL): 17.47 fold | IC50 (SIK3): 30.8 nM

CN1CCOCC12CCN(c1cccc3ccc(-n4cnc5cc(OCC6(C)COC6)ccc54)nc13)CC2 [Example 10, 1-Methyl-9-[2-[5-[(3-methyloxetan-3-yl)methoxy]benzimidazol-1-yl]-8-quinolyl]-4-oxa-1,9-diazaspiro[5.5]undecane]
CRTC2 Efficacy (% of forskolin) (CRTC2 (TORC2)): 75.8 % of forskolin | IC50 (Recombinant SIK2): 2.11 nM | IC50 (SIK1): 37.8 nM | RANKL Fold Induction (RANKL): 58.64 fold | IC50 (SIK3): 3.71 nM

COCCN1CCC12CCN(c1cccc3ccc(-n4cnc5cc(OCC6(C)COC6)ccc54)nc13)CC2 [Example 12, 8-[1-(2-Methoxyethyl)-1,7-diazaspiro[3.5]nonan-7-yl]-2-[5-[(3-methyloxetan-3-yl)methoxy]benzimidazol-1-yl]quinoline]
CRTC2 Efficacy (% of forskolin) (CRTC2 (TORC2)): 37.6 % of forskolin | IC50 [1]: 925 nM | IC50 (Recombinant SIK2): 4.9 nM | IC50 (SIK1): 140 nM | RANKL Fold Induction (RANKL): 62.52 fold | IC50 (SIK3): 11.9 nM

NC1CCN(c2cccc3ncc(-n4cnc5cc(OCC6CS(=O)(=O)C6)ccc54)nc23)CC1 [Example 14, 3-(((1-(8-(4-Aminopiperidin-1-yl)quinoxalin-2-yl)-1H-benzo[d]imidazol-5-yl)oxy)methyl)thietane 1,1-dioxide]
CRTC2 Efficacy (% of forskolin) (CRTC2 (TORC2)): 94.2 % of forskolin | IC50 (Recombinant SIK2): 16.1 nM | IC50 (SIK1): 109 nM | RANKL Fold Induction (RANKL): 1.26 fold | IC50 (SIK3): 6.08 nM

CN1CC(c2cccc3ccc(-n4cnc5cc(OCC6(C)COC6)ccc54)nc23)C1 [Example 15, 8-(1-Methylazetidin-3-yl)-2-(5-((3-methyloxetan-3-yl)methoxy)-1H-benzo[d]imidazol-1-yl)quinoline]
CRTC2 Efficacy (% of forskolin) (CRTC2 (TORC2)): 63.5 % of forskolin | IC50 (Recombinant SIK2): 1.91 nM | IC50 (SIK1): 4.37 nM | RANKL Fold Induction (RANKL): 88.34 fold | IC50 (SIK3): 1.12 nM

N#Cc1ccc(-c2cnc3cc(C(=O)NCc4nc5ccccc5[nH]4)ccn23)cc1 [Example 22, N-((1H-benzo[d]imidazol-2-yl)methyl)-3-(4-cyanophenyl)imidazo[1,2-a]pyridine-7-carboxamide]
CRTC2 Efficacy (% of forskolin) (CRTC2 (TORC2)): 12.9 % of forskolin | IC50 [1, 2]: 117 nM | IC50 (Recombinant SIK2): 5.58 nM | IC50 (SIK1): 13000 nM | RANKL Fold Induction (RANKL): 1.19 fold | IC50 (SIK3): 497 nM

N#Cc1ccc(-c2cnc3cc(C(=O)NCc4cn5ccccc5n4)ccn23)cc1 [Example 24, 3-(4-cyanophenyl)-N-(imidazo[1,2-a]pyridin-2-ylmethyl)imidazo[1,2-a]pyridine-7-carboxamide]
CRTC2 Efficacy (% of forskolin) (CRTC2 (TORC2)): 21.2 % of forskolin | IC50 [1, 2]: 42.1 nM | IC50 (Recombinant SIK2): 11.4 nM | IC50 (SIK1): 12500 nM | RANKL Fold Induction (RANKL): 2.24 fold | IC50 (SIK3): 835 nM

N#Cc1ccc(-c2cnc3cc(C(=O)NCc4nc5ccncc5[nH]4)ccn23)cc1 [Example 25, N-((3H-imidazo[4,5-c]pyridin-2-yl)methyl)-3-(4-cyanophenyl)imidazo[1,2-a]pyridine-7-carboxamide]
CRTC2 Efficacy (% of forskolin) (CRTC2 (TORC2)): 1.6 % of forskolin | IC50 (Recombinant SIK2): 9.74 nM | IC50 (SIK1): 5450 nM | RANKL Fold Induction (RANKL): 1.10 fold | IC50 (SIK3): 1190 nM

COc1ccc(OC)c(-c2cnc3cc(C(=O)NCc4cccnc4)ccn23)c1 [Example 31, 3-(2,5-dimethoxyphenyl)-N-(3-pyridylmethyl)imidazo[1,2-a]pyridine-7-carboxamide]
CRTC2 Efficacy (% of forskolin) (CRTC2 (TORC2)): 31.2 % of forskolin | IC50 [1]: 4020 nM | IC50 (SIK1): 409 nM | RANKL Fold Induction (RANKL): 0.90 fold | IC50 (SIK3): 76.1 nM

Cc1ccc(CCOc2ccn3c(-c4ccc(C#N)cc4)cnc3c2)cn1 [Example 41, 4-[7-[2-(6-Methyl-3-pyridyl)ethoxy]imidazo[1,2-a]pyridin-3-yl]benzonitrile]
CRTC2 Efficacy (% of forskolin) (CRTC2 (TORC2)): 44.2 % of forskolin | IC50 (SIK1): 233 nM | RANKL Fold Induction (RANKL): 2.61 fold | IC50 (SIK3): 12.6 nM

CCn1cc(-c2ccc3c(-c4ccc(C#N)cc4)cnn3c2)cn1 [Example 52, 4-[6-(1-Ethylpyrazol-4-yl)pyrazolo[1,5-a]pyridin-3-yl]benzonitrile]
CRTC2 Efficacy (% of forskolin) (CRTC2 (TORC2)): 77 % of forskolin | IC50 (Recombinant SIK2): 1.11 nM | IC50 (SIK1): 4.77 nM | RANKL Fold Induction (RANKL): 19.99 fold | IC50 (SIK3): 1.64 nM

CCn1cc(-c2ccn3c(-c4ccc(-c5nnc(C)o5)cc4)cnc3c2)cn1 [Example 56, 2-(4-(7-(1-ethyl-1H-pyrazol-4-yl)imidazo[1,2-a]pyridin-3-yl)phenyl)-5-methyl-1,3,4-oxadiazole]
CRTC2 Efficacy (% of forskolin) (CRTC2 (TORC2)): 4.9 % of forskolin | IC50 (Recombinant SIK2): 533 nM | IC50 (SIK1): 3120 nM | RANKL Fold Induction (RANKL): 2.18 fold | IC50 (SIK3): 617 nM

CCc1nnc(-c2ccc(-c3cnc4cc(-c5cnn(C)c5)ccn34)cc2OC)o1 [Example 57, 2-ethyl-5-(2-methoxy-4-(7-(1-methyl-1H-pyrazol-4-yl)imidazo[1,2-a]pyridin-3-yl)phenyl)-1,3,4-oxadiazole]
IC50 [1, 2]: 90.8 nM | IC50 (Recombinant SIK2): 8.76 nM | IC50 (SIK1): 90.8 nM | RANKL Fold Induction (RANKL): 13.68 fold | IC50 (SIK3): 11 nM

CCc1nc(-c2c(OC)cc(-c3cnc4cc(-c5cnn(C)c5)ccn34)cc2OC)no1 [Example 61, 3-[2,6-Dimethoxy-4-[7-(1-methylpyrazol-4-yl)imidazo[1,2-a]pyridin-3-yl]phenyl]-5-ethyl-1,2,4-oxadiazole]
CRTC2 Efficacy (% of forskolin) (CRTC2 (TORC2)): 76.9 % of forskolin | IC50 (Recombinant SIK2): 3.07 nM | IC50 (SIK1): 37.8 nM | RANKL Fold Induction (RANKL): 19.00 fold | IC50 (SIK3): 8.25 nM

CCn1cc(-c2ccn3c(-c4ccc(-c5noc(C)n5)cc4)cnc3c2)cn1 [Example 62, 3-(4-(7-(1-Ethyl-1H-pyrazol-4-yl)imidazo[1,2-a]pyridin-3-yl)phenyl)-5-methyl-1,2,4-oxadiazole]
CRTC2 Efficacy (% of forskolin) (CRTC2 (TORC2)): 8.6 % of forskolin | IC50 (Recombinant SIK2): 253 nM | IC50 (SIK1): 1130 nM | IC50 (SIK3): 1090 nM

COc1cc(-c2cnc3cc(C(=O)NCc4ccc(C)nc4)ccn23)cc(OC)c1C(=O)NCC(F)(F)F [Example 68, 3-[3,5-Dimethoxy-4-(2,2,2-trifluoroethylcarbamoyl)phenyl]-N-[(6-methyl-3-pyridyl)methyl]imidazo[1,2-a]pyridine-7-carboxamide]
CRTC2 Efficacy (% of forskolin) (CRTC2 (TORC2)): 12 % of forskolin | IC50 (Recombinant SIK2): 12.4 nM | IC50 (SIK1): 94.7 nM | RANKL Fold Induction (RANKL): 2.88 fold | IC50 (SIK3): 8.67 nM
